Experimental data taken from patent US9205070B2, “Chelation suppository for improved drug delivery” (APPLIED BIORESEARCH, INC., priority 2013, dated 2015).
Read-outs that look alike come from different tables or passages of the source.

How the values were obtained:
[1] = rat
Excerpt: The conclusive measure of bioavailability is to measure the drug blood levels (or levels in some other body fluid) after administration to human test subjects.
See Rabau M Y, Baratz M, Rozen P, “Na2 ethylenediaminetetraacetic acid retention enema in dogs. Biochemical and histological response”.

[2] = aqueous composition containing MBK, pH 7.0 and pH 9.6, after 5 hours
Method: Cells in the digestive track, such as CACO-2 cells are typically used to model absorption in the small intestine. CACO-2 cells, developed by the Sloan-Kettering Institute from human epithelial colorectal adenocarcinoma cells, are widely used to predict drug absorption. […] permeability assay (PAMPA) uses an artificial cell membrane to model drug permeability. In either test, the drug is dissolved in an aqueous solution mimicking the target gastric fluid. The fluid is contacted with the membrane, and the passage of the drug through the membrane over a period of time is used to assess permeability.
PAMPA measures how quickly the drug can exit a water-solvated environment and pass through a cell membrane. Since most drugs are hydrophobic, it is expected that there will be significant absorption by the cells lining the digestive tract.

[3] = dogs, aqueous solution, rectal; cited from earlier work
[4] = Group C, rectal suppository with MBK excipient, mean

O=C([O-])CN(CCN(CC(=O)[O-])CC(=O)[O-])CC(=O)[O-].[Ca+2].[Na+].[Na+] [CaNa2EDTA, calcium disodium ethylenediaminetetraacetate]
AUC ([1]; Group B, intravenous, mean): 1860 ng·h/mL | AUC Inf ([1]; Group B, intravenous, mean): 1910 ng·h/mL | Cmax ([1]; Group B, intravenous, mean): 2070 ng/mL | Halflife ([1]; Group B, intravenous, mean): 90 min | Tmax ([1]; Group B, intravenous, mean): 4.98 min | AUC [1, 4]: 105800 ng·h/mL | AUC Inf [1, 4]: 307300 ng·h/mL | Cmax [1, 4]: 30600 ng/mL | drug absorbed ([1]; suppository with MBK as the excipient, within eight hours): over 36.3% | passage of drug through the artificial cell membrane [2]: no drug was found to have passed through the artificial cell membrane

O=C(O)CN(CCN(CC(=O)O)CC(=O)O)CC(=O)O [EDTA]
absorption [3]: ~13%
